In the test the target is wild-type human cardiac sodium channel, hNav1.5 (Homo sapiens, UniProt Q14524). Briefly: Late INa screening assay (late sodium current, PatchXpress whole cell patch clamp). It counts as cell-based. Particulars: compound at 10 μM; read-out: Late INa % blk. (In general: In patch-clamp work, channel activity is measured electrically.)
wild-type human cardiac sodium channel, hNav1.5, sequence (Q14524 whole entry): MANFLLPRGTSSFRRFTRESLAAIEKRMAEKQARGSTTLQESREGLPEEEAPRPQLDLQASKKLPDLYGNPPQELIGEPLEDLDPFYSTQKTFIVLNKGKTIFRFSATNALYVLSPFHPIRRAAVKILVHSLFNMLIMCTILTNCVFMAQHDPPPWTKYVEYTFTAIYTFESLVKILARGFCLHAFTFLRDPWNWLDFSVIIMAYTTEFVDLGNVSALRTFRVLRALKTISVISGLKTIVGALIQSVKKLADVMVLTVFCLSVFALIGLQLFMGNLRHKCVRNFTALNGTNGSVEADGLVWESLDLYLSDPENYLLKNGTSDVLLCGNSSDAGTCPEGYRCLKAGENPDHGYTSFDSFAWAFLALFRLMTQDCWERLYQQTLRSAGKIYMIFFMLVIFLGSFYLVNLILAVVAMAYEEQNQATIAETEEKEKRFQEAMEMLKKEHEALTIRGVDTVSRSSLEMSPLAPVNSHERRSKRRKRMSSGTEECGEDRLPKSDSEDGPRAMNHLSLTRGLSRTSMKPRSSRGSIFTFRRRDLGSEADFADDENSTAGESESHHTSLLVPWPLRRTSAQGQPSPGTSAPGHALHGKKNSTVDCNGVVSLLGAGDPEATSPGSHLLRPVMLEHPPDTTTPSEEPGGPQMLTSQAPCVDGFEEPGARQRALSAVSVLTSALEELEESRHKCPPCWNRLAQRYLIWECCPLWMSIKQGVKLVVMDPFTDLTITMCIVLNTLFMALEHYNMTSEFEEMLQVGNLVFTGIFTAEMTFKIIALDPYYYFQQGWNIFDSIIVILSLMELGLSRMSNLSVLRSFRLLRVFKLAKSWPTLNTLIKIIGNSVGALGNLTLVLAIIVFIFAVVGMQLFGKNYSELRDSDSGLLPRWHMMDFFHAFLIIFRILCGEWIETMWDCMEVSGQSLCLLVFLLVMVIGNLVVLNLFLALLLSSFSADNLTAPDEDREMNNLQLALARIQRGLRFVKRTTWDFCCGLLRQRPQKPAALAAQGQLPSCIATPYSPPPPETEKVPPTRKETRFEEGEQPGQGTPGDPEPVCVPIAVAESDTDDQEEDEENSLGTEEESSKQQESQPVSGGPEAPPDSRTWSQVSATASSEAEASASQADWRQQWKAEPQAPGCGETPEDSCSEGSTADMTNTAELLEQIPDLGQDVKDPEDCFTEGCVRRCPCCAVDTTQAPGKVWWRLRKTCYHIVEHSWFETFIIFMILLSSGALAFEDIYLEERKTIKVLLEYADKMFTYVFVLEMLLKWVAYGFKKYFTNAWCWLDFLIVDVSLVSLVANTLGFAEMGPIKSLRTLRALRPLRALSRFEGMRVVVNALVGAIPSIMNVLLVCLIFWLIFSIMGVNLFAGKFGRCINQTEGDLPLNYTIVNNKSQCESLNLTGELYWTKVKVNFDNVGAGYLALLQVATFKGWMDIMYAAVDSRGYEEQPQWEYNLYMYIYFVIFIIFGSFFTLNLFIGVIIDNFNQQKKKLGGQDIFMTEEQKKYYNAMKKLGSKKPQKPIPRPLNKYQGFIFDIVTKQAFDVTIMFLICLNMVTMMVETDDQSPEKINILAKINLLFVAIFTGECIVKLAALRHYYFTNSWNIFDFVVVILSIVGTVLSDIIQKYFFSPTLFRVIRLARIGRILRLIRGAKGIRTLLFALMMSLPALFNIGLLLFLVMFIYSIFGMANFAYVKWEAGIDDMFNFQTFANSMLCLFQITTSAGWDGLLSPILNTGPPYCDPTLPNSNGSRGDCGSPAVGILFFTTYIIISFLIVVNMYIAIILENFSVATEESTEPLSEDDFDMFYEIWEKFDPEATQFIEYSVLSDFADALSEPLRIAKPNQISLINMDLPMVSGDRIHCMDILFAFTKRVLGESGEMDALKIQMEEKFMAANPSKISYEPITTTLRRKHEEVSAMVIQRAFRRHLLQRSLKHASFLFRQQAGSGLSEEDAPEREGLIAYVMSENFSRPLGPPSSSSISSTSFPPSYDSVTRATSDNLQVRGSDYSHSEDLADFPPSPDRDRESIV
Regarding `CC1=C(C(=O)OCc2ccccc2)C(c2cccc3ccccc23)n2nnnc2N1CC#N` (centres unmarked) [PT-337, benzyl 4-(cyanomethyl)-5-methyl-7-(naphthalen-1-yl)-4,7-dihydrotetrazolo[1,5-a]pyrimidine-6-carboxylate], the inhibition at 10 µM worked out at 30.2%. For `CC1=C(C(=O)OCc2ccccc2)C(c2cnc(N3CCN(C)CC3)s2)n2nnnc2N1` (centres unmarked) [PT-341, benzyl 5-methyl-7-(2-(4-methylpiperazin-1-yl)thiazol-5-yl)-4,7-dihydrotetrazolo[1,5-a]pyrimidine-6-carboxylate] the value was 23.3%; for `COc1cc(OC)c(C2C(C(=O)OCc3ccccc3)=C(C)Nc3nnnn32)c(OC)c1` (centres unmarked) [PT-343, benzyl 5-methyl-7-(2,4,6-trimethoxyphenyl)-4,7-dihydrotetrazolo[1,5-a]pyrimidine-6-carboxylate], 34.4%; for `CC1=C(C(=O)OCc2ccccc2)C(c2ccccc2-c2ccccc2C)n2nnnc2N1` (centres unmarked) [PT-344, benzyl 5-methyl-7-(2′-methylbiphenyl-2-yl)-4,7-dihydrotetrazolo[1,5-a]pyrimidine-6-carboxylate], 44.6%. For `CC1=C(C(=O)OCc2ccccc2)C(c2ccccc2N2CCOCC2)n2nnnc2N1` (centres unmarked) [PT-345, benzyl 5-methyl-7-(2-morpholinophenyl)-4,7-dihydrotetrazolo[1,5-a]pyrimidine-6-carboxylate] the value was 36.7%; for `CC1=C(C(=O)OCc2ccccc2)C(c2cnc(N3CCOCC3)s2)n2nnnc2N1` (centres unmarked) [PT-346, benzyl 5-methyl-7-(2-morpholinothiazol-5-yl)-4,7-dihydrotetrazolo[1,5-a]pyrimidine-6-carboxylate], 23%; for `CC1=C(C(=O)OCc2ccccc2)C(c2ccc(C(F)(F)F)cc2[N+](=O)[O-])n2nnnc2N1` (centres unmarked) [PT-347, benzyl 5-methyl-7-(2-nitro-4-(trifluoromethyl)phenyl)-4,7-dihydrotetrazolo[1,5-a]pyrimidine-6-carboxylate], 5.1%. As for `CC1=C(C(=O)OCc2ccccc2)C(c2ccccc2-c2cccc(C(F)(F)F)c2)n2nnnc2N1` (centres unmarked) [PT-349, benzyl 5-methyl-7-(3′-(trifluoromethyl)biphenyl-2-yl)-4,7-dihydrotetrazolo[1,5-a]pyrimidine-6-carboxylate], the inhibition at 10 µM is 77.3%. For `CC1=C(C(=O)OCc2ccccc2)C(c2ccccc2-c2cccc(C)c2)n2nnnc2N1` (centres unmarked) [PT-350, benzyl 5-methyl-7-(3′-methylbiphenyl-2-yl)-4,7-dihydrotetrazolo[1,5-a]pyrimidine-6-carboxylate] the value was 63.2%; for `CC1=C(C(=O)OCc2ccccc2)C(c2ccc(S(C)(=O)=O)cc2[N+](=O)[O-])n2nnnc2N1` (centres unmarked) [PT-353, benzyl 5-methyl-7-(4-(methylsulfonyl)-2-nitrophenyl)-4,7-dihydrotetrazolo[1,5-a]pyrimidine-6-carboxylate], 5.8%; for `CC1=C(C(=O)OCc2ccccc2)C(c2ccccc2-c2ccc(S(C)(=O)=O)cc2)n2nnnc2N1` (centres unmarked) [PT-354, benzyl 5-methyl-7-(4′-(methylsulfonyl)biphenyl-2-yl)-4,7-dihydrotetrazolo[1,5-a]pyrimidine-6-carboxylate], 64.7%. For `CC1=C(C(=O)OCc2ccccc2)C(c2ccc(S(C)(=O)=O)cc2)n2nnnc2N1` (centres unmarked) [PT-355, benzyl 5-methyl-7-(4-(methylsulfonyl)phenyl)-4,7-dihydrotetrazolo[1,5-a]pyrimidine-6-carboxylate] the value was 14.8%; for `CSc1ccc(C2C(C(=O)OCc3ccccc3)=C(C)Nc3nnnn32)cc1` (centres unmarked) [PT-356, benzyl 5-methyl-7-(4-(methylthio)phenyl)-4,7-dihydrotetrazolo[1,5-a]pyrimidine-6-carboxylate], 16.4%; for `CC1=C(C(=O)OCc2ccccc2)C(c2ccc(OC(F)(F)F)cc2)n2nnnc2N1` (centres unmarked) [PT-357, benzyl 5-methyl-7-(4-(trifluoromethoxy)phenyl)-4,7-dihydrotetrazolo[1,5-a]pyrimidine-6-carboxylate], 19.6%. With `CC1=C(C(=O)OCc2ccccc2)C(c2ccc(C(F)(F)F)cc2)n2nnnc2N1` (centres unmarked) [PT-358, benzyl 5-methyl-7-(4-(trifluoromethyl)phenyl)-4,7-dihydrotetrazolo[1,5-a]pyrimidine-6-carboxylate] the figure was 7.4%; with `CC1=C(C(=O)OCc2ccccc2)C(c2ccc(SC(F)(F)F)cc2)n2nnnc2N1` (centres unmarked) [PT-359, benzyl 5-methyl-7-(4-(trifluoromethylthio)phenyl)-4,7-dihydrotetrazolo[1,5-a]pyrimidine-6-carboxylate], 21.3%. Regarding `CC1=C(C(=O)OCc2ccccc2)C(c2ccccc2-c2ccc(N3CCOCC3)cc2)n2nnnc2N1` (centres unmarked) [PT-360, benzyl 5-methyl-7-(4′-morpholinobiphenyl-2-yl)-4,7-dihydrotetrazolo[1,5-a]pyrimidine-6-carboxylate], the inhibition at 10 µM amounted to 7.2%. With `CC1=C(C(=O)OCc2ccccc2)C(c2ccccc2-c2ccc([N+](=O)[O-])cc2)n2nnnc2N1` (centres unmarked) [PT-361, benzyl 5-methyl-7-(4′-nitrobiphenyl-2-yl)-4,7-dihydrotetrazolo[1,5-a]pyrimidine-6-carboxylate] the figure was 41%.

For `CC1=C(C(=O)OCc2ccccc2)C(c2cccc3ccccc23)n2ncc(-c3ccccc3)c2N1` (centres unmarked) [PT-362, benzyl 5-methyl-7-(naphthalen-1-yl)-3-phenyl-4,7-dihydropyrazolo[1,5-a]pyrimidine-6-carboxylate], the inhibition at 10 µM was 14.4%. Take `CC1=C(C(=O)OCc2ccccc2)C(c2cncs2)n2nnnc2N1` (centres unmarked) [PT-365, benzyl 5-methyl-7-(thiazol-5-yl)-4,7-dihydrotetrazolo[1,5-a]pyrimidine-6-carboxylate]: the inhibition at 10 µM came to 26.9%. With `CC1=C(C(=O)OCc2ccccc2)C(c2cccc3ccccc23)c2cn[nH]c2N1` (centres unmarked) [PT-367, benzyl 6-methyl-4-(naphthalen-1-yl)-4,7-dihydro-1H-pyrazolo[3,4-b]pyridine-5-carboxylate] the figure was 16.1%. For `CC1=C(C(=O)OCc2ccccc2)C(c2ccc3ccccc3c2)c2cn[nH]c2N1` (centres unmarked) [PT-368, benzyl 6-methyl-4-(naphthalen-2-yl)-4,7-dihydro-1H-pyrazolo[3,4-b]pyridine-5-carboxylate], the inhibition at 10 µM is -4.2%. As to `CC1=C(C(=O)OCc2ccccc2)C(c2cccs2)c2cn[nH]c2N1` (centres unmarked) [PT-370, benzyl 6-methyl-4-(thiophen-2-yl)-4,7-dihydro-1H-pyrazolo[3,4-b]pyridine-5-carboxylate], the inhibition at 10 µM amounted to 24.7%. For `CC1=C(C(=O)OCc2ccccc2)C(c2ccccc2)c2cn[nH]c2N1` (centres unmarked) [PT-372, benzyl 6-methyl-4-phenyl-4,7-dihydro-1H-pyrazolo[3,4-b]pyridine-5-carboxylate] the value was 20.8%. Turning to `CC1=C(C(=O)OCc2ccccc2)C(c2ccccc2-c2cnc(N)nc2)n2nnnc2N1` (centres unmarked) [PT-375, benzyl 7-(2-(2-aminopyrimidin-5-yl)phenyl)-5-methyl-4,7-dihydrotetrazolo[1,5-a]pyrimidine-6-carboxylate], the inhibition at 10 µM was found to be 50.7%.

With `CC1=C(C(=O)OCc2ccccc2)C(c2ccccc2-c2c(C)noc2C)n2nnnc2N1` (centres unmarked) [PT-376, benzyl 7-(2-(3,5-dimethylisoxazol-4-yl)phenyl)-5-methyl-4,7-dihydrotetrazolo[1,5-a]pyrimidine-6-carboxylate], the inhibition at 10 µM worked out at 61%. With `CCOC(=O)c1ccc(COc2ccccc2C2C(C(=O)OCc3ccccc3)=C(C)Nc3nnnn32)cc1` (centres unmarked) [PT-377, benzyl 7-(2-(4-(ethoxycarbonyl)benzyloxy)phenyl)-5-methyl-4,7-dihydrotetrazolo[1,5-a]pyrimidine-6-carboxylate] the figure was 30.3%; with `COc1ccc(C2C(C(=O)OCc3ccccc3)=C(C)Nc3nnnn32)c(OCc2ccccc2)c1` (centres unmarked) [PT-380, benzyl 7-(2-(benzyloxy)-4-methoxyphenyl)-5-methyl-4,7-dihydrotetrazolo[1,5-a]pyrimidine-6-carboxylate], 70.9%; with `CC1=C(C(=O)OCc2ccccc2)C(c2cc(Br)ccc2OCc2ccccc2)n2nnnc2N1` (centres unmarked) [PT-381, benzyl 7-(2-(benzyloxy)-5-bromophenyl)-5-methyl-4,7-dihydrotetrazolo[1,5-a]pyrimidine-6-carboxylate], 43.7%. For `COc1cccc(OCc2ccccc2)c1C1C(C(=O)OCc2ccccc2)=C(C)Nc2nnnn21` (centres unmarked) [PT-382, benzyl 7-(2-(benzyloxy)-6-methoxyphenyl)-5-methyl-4,7-dihydrotetrazolo[1,5-a]pyrimidine-6-carboxylate] the value was 13.9%; for `CC1=C(C(=O)OCc2ccccc2)C(c2ccccc2OCc2ccccc2)n2nnnc2N1` (centres unmarked) [PT-383, benzyl 7-(2-(benzyloxy)phenyl)-5-methyl-4,7-dihydrotetrazolo[1,5-a]pyrimidine-6-carboxylate], 79.5%. With `CC1=C(C(=O)OCc2ccccc2)C(c2ccc(C(F)(F)F)cc2C(F)(F)F)n2nnnc2N1` (centres unmarked) [PT-384, benzyl 7-(2,4-bis(trifluoromethyl)phenyl)-5-methyl-4,7-dihydrotetrazolo[1,5-a]pyrimidine-6-carboxylate] the figure was 29.4%; with `COc1ccc(C2C(C(=O)OCc3ccccc3)=C(C)Nc3nnnn32)c(OC)c1` (centres unmarked) [PT-385, benzyl 7-(2,4-dimethoxyphenyl)-5-methyl-4,7-dihydrotetrazolo[1,5-a]pyrimidine-6-carboxylate], 56.5%; with `CC1=C(C(=O)OCc2ccccc2)C(c2ccccc2Br)n2nnnc2N1` (centres unmarked) [PT-387, benzyl 7-(2-bromophenyl)-5-methyl-4,7-dihydrotetrazolo[1,5-a]pyrimidine-6-carboxylate], 84.8%. Consider `CC1=C(C(=O)OCc2ccccc2)C(c2ccccc2-c2ccccc2C(N)=O)n2nnnc2N1` (centres unmarked) [PT-388, benzyl 7-(2′-carbamoylbiphenyl-2-yl)-5-methyl-4,7-dihydrotetrazolo[1,5-a]pyrimidine-6-carboxylate], for which the inhibition at 10 µM worked out at 2.7%.

Values taken from US20090012103A1, “SUBSTITUTED HETEROCYCLIC COMPOUNDS” (priority 2007, published 2009).
